Structures are written as SMILES. Where a name gives a salt, the structure may show the parent alone.

Data on 32 compounds can be found in patent US10329296B2, “Indole derivatives” (Richter Gedeon Nyrt., priority 2015, dated 2019).

For the test, the target named is human MCH1 receptor (Homo sapiens, UniProt Q99705). The test can be described thus: MCHR1 antagonism functional assay, measuring cytoplasmic calcium concentration ([Ca2+]i).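 Note: human MCH1 AequoScreen cells loaded with calcium-sensitive fluorescent dye, compounds preincubated one hour, then MCH given at its EC80, inhibition of ΔF/F rise relative to DMSO vehicle.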
Experimental: Evaluation of MCHR1 Antagonism in Functional Assay
Cells: human MCH1 (SLC1) AequoScreen® Cell Line (Perkin Elmer ES-370-A, lot No: M4W-A2)
MCH was dissolved in MilliQ water (1 mM), aliquots were taken from the stock solution, and were kept at −20° C. One aliquot was used only once.
Assay buffer: HBSS+2 mM probenecid, pH=7.4
Measuring of Cytoplasmic Calcium Concentration ([Ca^2+]i):
On the day of measurement the culture medium was removed from the cells and a fluorescent Ca^2+-sensitive dye (FLIPR Calcium 5 kit, Molecular Devices R8186) was added to the cells at a 4× dilution compared to the recommended dilution by the manufacturer, in a volume of 100 μl/well, and cells were incubated at 37° C. for 10 min. […] The vehicle (DMSO, control treatment), or the buffer containing test compounds were added to the cells in a volume of 50 μl/well, and cells were incubated at 37° C. for further 60 min.
1 mM stock solution was made from the agonist in distilled water, this solution was distributed into aliquots, which were kept at −20° C. until use. One aliquot was used only once. Fluorescence was detected before addition of MCH for 20 s, and after addition of MCH for 40 s. MCH was applied at an EC80 concentration, the EC80-values were determined individually for every plate/experiment. For this whole MCH dose-response curves were determined on one part of the plate, 4 parameter sigmoidal curves were fitted to the experimental data by nonlinear regression, MCH EC80 values were derived from the fitted curve. The raw fluorescence data were converted into ΔF/F values (the maximum fluorescence value obtained after addition of MCH was normalized to the baseline fluorescence: ΔF/F=(Fmax−Fbaseline)/Fbaseline). […] IC50 values of the tested compounds were determined by fitting 4 parameter sigmoidal curves to inhibition % data. Data processing, including fitting curves by nonlinear regression, was done by SoftMaxPro software.
Usually IC50 stands for the concentration that gives 50% inhibition. On to `CC(C)N1CCc2cc3cc(-n4ccc(OCc5ccc(F)cc5)cc4=O)ccc3n2CC1` [Example 21, 4-[(4-fluorophenyl)methoxy]-1-[3-(propan-2-yl)-1H,2H,3H,4H,5H-[1,4]diazepino[1,7-a]indol-9-yl]-1,2-dihydropyridin-2-one], for which the IC50 was determined as 8 nM.

Consider `CCN1CCc2cc3cc(-n4ccc(OCc5ccc(F)cc5)cc4=O)ccc3n2CC1` [Example 16, 1-{3-ethyl-1H,2H,3H,4H,5H-[1,4]diazepino[1,7-a]indol-9-yl}-4-[(4-fluorophenyl)methoxy]-1,2-dihydropyridin-2-one], for which the IC50 turned out to be 7.2 nM.

For the compound `COc1ccc(COc2ccn(-c3ccc4c(c3)cc3n4CCNCC3)c(=O)c2)cc1` [Example 2, 1-{1H,2H,3H,4H,5H-[1.4]diazepino[1,7-a]indol-9-yl}-4-[(4-methoxyphenyl)-methoxy]-1,2-dihydropyridin-2-one hydrochloride salt], the IC50 came to 32.9 nM.

Regarding `CCN1CCc2cc3cc(-n4ccc(OCc5ccc(OC)cc5)cc4=O)ccc3n2CC1` [Example 14, 1-{3-ethyl-1H,2H,3H,4H,5H-[1,4]diazepino[1,7-a]indol-9-yl}-4-[(4-methoxyphenyl)methoxy]-1,2-dihydropyridin-2-one], the IC50 came out at 7.9 nM.

For the compound `CN1CCc2cc3cc(-n4ccc(OCc5ccc(Cl)cn5)cc4=O)ccc3n2CC1` [Example 11, 4-[(5-chloropyridin-2-yl)methoxy]-1-{3-methyl-1H,2H,3H,4H,5H-[1,4]diazepino[1,7-a]indol-9-yl}-1,2-dihydropyridin-2-one], the IC50 worked out at 9.6 nM.

With `CN1CCc2cc3cc(-n4ccc(OCc5ccc(F)cn5)cc4=O)ccc3n2CC1` [Example 9, 4-[(5-fluoropyridin-2-yl)methoxy]-1-{3-methyl-1H,2H,3H,4H,5H-[1,4]diazepino[1,7-a]indol-9-yl}-1,2-dihydropyridin-2-one maleic acid salt], the IC50 stood at 14.9 nM.

On to `O=c1cc(OCc2ccc(Cl)cc2)ccn1-c1ccc2c(c1)cc1n2CCNCC1` [Example 6, 4-[(4-chlorophenyl)methoxy]-1-{1H,2H,3H,4H,5H-[1,4]diazepino[1,7-a]indol-9-yl}-1,2-dihydropyridin-2-one hydrochloride salt], for which the IC50 turned out to be 11.9 nM.

For `CN1CCc2cc3cc(-n4ccc(OCc5ccc(Cl)cc5)cc4=O)ccc3n2CC1` [Example 12, 4-[(4-chlorophenol)methoxy]-1-{3-methyl-1H,2H,3H,4H,5H-[1,4]diazepino[1,7-a]indol-9-yl}-1,2-dihydropyridin-2-one maleic acid salt], the IC50 worked out at 9 nM.

Regarding `CC(C)N1CCc2c(I)c3cc(-n4ccc(OCc5ccc(Cl)cn5)cc4=O)ccc3n2CC1` [Example 26, 4-[(5-chloropyridin-2-yl)methoxy]-1-[11-iodo-3-(propan-2-yl)-1H,2H,3H,4H,5H-[1,4]diazepino[1,7-a]indol-9-yl]-1,2-dihydropyridin-2-one maleic acid salt], the IC50 was found to be 38.8 nM.

In the case of `CC(C)N1CCc2cc3cc(-n4ccc(OCc5ccc(Cl)cn5)cc4=O)ccc3n2CC1` [Example 20, 4-[(5-chloropyridin-2-yl)methoxy]-1-[3-(propan-2-yl)-1H,2H,3H,4H,5H-[1,4]diazepino[1,7-a]indol-9-yl]-1,2-dihydropyridin-2-one maleic acid salt], the half-inhibitory concentration (IC50) is 6.2 nM.

For `O=c1cc(OCc2ccccc2)ccn1-c1ccc2c(c1)cc1n2CCNCC1` [Example 3, 4-(benzyloxy)-1-{1H,2H,3H,4H,5H-[1,4]diazepino[1,7-a]indol-9-yl}-1,2-dihydropyridin-2-one maleic acid salt], the IC50 is 17.7 nM.

Regarding `CC(C)N1CCc2cc3cc(-n4ccc(OCc5ccc(Cl)cc5)cc4=O)ccc3n2CC1` [Example 22, 4-[(4-chlorophenyl)methoxy]-1-[3-(propan-2-yl)-1H,2H,3H,4H,5H-[1,4]diazepino[1,7-a]indol-9-yl]-1,2-dihydropyridin-2-one maleic acid salt], the IC50 is 7.2 nM.

Take `O=c1cc(OCc2ccccc2F)ccn1-c1ccc2c(c1)cc1n2CCNCC1` [Example 7, 1-{1H,2H,3H,4H,5H-[1,4]diazepino[1,7-a]indol-9-yl}-4-[(2-fluorphenyl)methoxy]-1,2-dihydropyridin-2-one hydrochloride salt]: the IC50 was 27.7 nM.

In the case of `CC(C)N1CCc2cc3cc(-n4ccc(OCc5ccc(F)cn5)cc4=O)ccc3n2CC1` [Example 18, 4-[(5-fluoropyridin-2-yl)methoxy]-1-[3-(propan-2-yl)-1H,2H,3H,4H,5H-[1,4]diazepino[1,7-a]indol-9-yl]-1,2-dihydropyridin-2-one maleic acid salt], the IC50 was found to be 15.2 nM.

For `CC(C)N1CCc2c(Br)c3cc(-n4ccc(OCc5ccc(Cl)cn5)cc4=O)ccc3n2CC1` [Example 25, 1-[11-bromo-3-(propan-2-yl)-1H,2H,3H,4H,5H-[1,4]diazepino[1,7-a]indol-9-yl]-4-[(5-chloropyridin-2-yl)methoxy]-1,2-dihydropyridin-2-one maleic acid salt], the IC50 stood at 30.7 nM.

As to `O=c1cc(OCc2ccc(F)cc2)ccn1-c1ccc2c(c1)cc1n2CCNCC1` [Example 5, 1-{1H,2H,3H,4H,5H-[1,4]diazepino[1,7-a]indol-9-yl}-4-[(4-fluorophenyl)methoxy]-1,2-dihydropyridin-2-one hydrochloride salt], the IC50 turned out to be 12 nM.

As to `O=c1cc(OCc2ccc(Cl)cn2)ccn1-c1ccc2c(c1)cc1n2CCN(CCF)CC1`, the IC50 turned out to be 10 nM.

Consider `CC(C)N1CCc2c(Cl)c3cc(-n4ccc(OCc5ccccc5)cc4=O)ccc3n2CC1` [Example 27, 4-(benzyloxy)-1-[11-chloro-3-(propan-2-yl)-1H,2H,3H,4H,5H-[1,4]diazepino[1,7-a]indol-9-yl]-1,2-dihydropyridin-2-one hydrochloride salt], for which the IC50 came out at 29.9 nM.

With `Cc1c2n(c3ccc(-n4ccc(OCc5ccc(Cl)cn5)cc4=O)cc13)CCN(C(C)C)CC2` [Example 34, 4-[(5-chloropyridin-2-yl)methoxy]-1-[11-methyl-3-(propan-2-yl)-1H,2H,3H,4H,5H-[1,4]diazepino[1,7-a]indol-9-yl]-1,2-dihydropyridin-2-one maleic acid salt], the IC50 amounted to 14.3 nM.

Consider `O=c1cc(OCc2ccc(Cl)cn2)ccn1-c1ccc2c(c1)cc1n2CCNCC1` [Example 4, 4-[(5-chloropyridin-2-yl)methoxy]-1-{1H,2H,3H,4H,5H-[1,4]diazepino[1,7-a]indol-9-yl}-1,2-dihydropyridin-2-one dihydrochloride salt], for which the IC50 worked out at 9.8 nM.

Regarding `CC(C)N1CCc2cc3cc(-n4ccc(OCc5ccccc5F)cc4=O)ccc3n2CC1` [Example 23, 4-[(2-fluorophenyl)methoxy]-1-[3-(propan-2-yl)-1H,2H,3H,4H,5H-[1,4]diazepino[1,7-a]indol-9-yl]-1,2-dihydropyridin-2-one hydrochloride salt], the IC50 is 15.7 nM.

In the case of `O=c1cc(OCc2ccccc2)ccn1-c1ccc2c(c1)cc1n2CCN(C2CC2)CC1` [Example 29, 4-(benzyloxy)-1-{3-cyclopropyl-1H,2H,3H,4H,5H-[1,4]diazepino[1,7-a]indol-9-yl}-1,2-dihydropyridin-2-one maleic acid salt], the IC50 was 12.9 nM.

For `O=c1cc(OCc2ccc(Cl)cn2)ccn1-c1ccc2c(c1)cc1n2CCN(CC2CC2)CC1` [Example 28, 4-[(5-chloropyridin-2-yl)methoxy]-1-[3-(cyclopropylmethyl)-1H,2H,3H,4H,5H-[1,4]diazepino[1,7-a]indol-9-yl]-1,2-dihydropyridin-2-ond maleic acid salt], the IC50 came out at 6.2 nM.

Turning to `O=c1cc(OCc2ccc(C(F)(F)F)cc2)ccn1-c1ccc2c(c1)cc1n2CCNCC1` [Example 8, 1-{1H,2H,3H,4H,5H-[1,4]diazepino[1,7-a]indol-9-il}-4-{[4-(trifluoromethyl)phenyl]methoxy}-1,2-dihydropyridin-2-one hydrochloride salt], the IC50 is 123 nM.

Consider `CC(=O)N1CCc2cc3cc(-n4ccc(OCc5ccc(Cl)cn5)cc4=O)ccc3n2CC1` [Example 17, 1-{3-acetyl-1H,2H,3H,4H,5H-[1,4]diazepino[1,7-a]indol-9-yl}-4-[(5-chloropyridin-2-yl)methoxy]-1,2-dihydropyridin-2-one], for which the IC50 came out at 18.9 nM.

With `O=c1cc(OCc2ccc(Cl)cn2)ccn1-c1ccc2c(c1)c(Cl)c1n2CCN(CCF)CC1`, the IC50 came to 15.5 nM.

Regarding `O=c1cc(OCc2ccc(Cl)cn2)ccn1-c1ccc2c(c1)cc1n2CCN(C2CC2)CC1` [Example 30, 4-[(5-chloropyridin-2-yl)methoxy]-1-{3-cyclopropyl-1H,2H,3H,4H,5H-[1,4]diazepino[1,7-a]indol-9-yl}-1,2-dihydropyridin-2-one maleic acid salt], the IC50 worked out at 17.2 nM.

For the compound `CC(C)N1CCc2c(Cl)c3cc(-n4ccc(OCc5ccc(Cl)cn5)cc4=O)ccc3n2CC1` [Example 24, 1-[11-chloro-3-(propan-2-yl)-1H,2H,3H,4H,5H-[1,4]diazepino[1,7-a]indol-9-yl]-4-[(5-chloropyridin-2-yl)methoxy]-1,2-dihydropyridin-2-one maleic acid salt], the IC50 worked out at 18.5 nM.

As for `CCN1CCc2cc3cc(-n4ccc(OCc5ccc(Cl)cn5)cc4=O)ccc3n2CC1` [Example 15, 4-[(5-chloropyridin-2-yl)methoxy]-1-{3-etil-1H,2H,3H,4H,5H-[1,4]diazepino[1,7-a]indol-9-yl}-1,2-dihydropyridin-2-one], the IC50 turned out to be 6.5 nM.

Regarding `CN1CCc2cc3cc(-n4ccc(OCc5ccccc5)cc4=O)ccc3n2CC1` [Example 10, 4-(benzyloxy)-1-{3-methyl-1H,2H,3H,4H,5H-[1,4]diazepino[1,7-a]indol-9-yl}-1,2-dihydropyridin-2-one hydrochloride salt], the IC50 is 9.2 nM.

For the compound `CC(C)N1CCc2cc3cc(-n4ccc(OCc5ccccc5)cc4=O)ccc3n2CC1` [Example 19, 4-(benzyloxy)-1-[3-(propan-2-yl)-1H,2H,3H,4H,5H-[1,4]diazepino[1,7-a]indol-9-yl]-1,2-dihydropyridin-2-one hydrochloride salt], the IC50 amounted to 8.2 nM.

On to `O=c1cc(OCc2ccc(Cl)cn2)ccn1-c1ccc2c(c1)cc1n2CCN(C2CCC2)CC1` [Example 31, 4-[(5-chloropyridin-2-yl)methoxy]-1-(3-cyclobutyl-1H,2H,3H,4H,5H-[1,4]diazepino[1,7-a]indol-9-yl)-1,2-dihydropyridin-2-one maleic acid salt], for which the IC50 amounted to 12.3 nM.
